Results reported in article PMC2646871 (Journal of Medicinal Chemistry, 2008).

Target: recombinant HIV-1 integrase (Human immunodeficiency virus type 1 group M subtype B, UniProt P12497)
Test: High throughput electrochemiluminescent
Format: biochemical
Settings: for times less potent than parent compound 6f (ST, HTECL): relative to 6f

Compound | IC50 [nM] | times less potent than parent compound 6f (ST, HTECL)
O=C(O)/C(O)=C/C(=O)c1cn(Cc2ccc(F)cc2)c2ccc(F)cc2c1=O [6b, 4-[6-Fluoro-1-(4-fluorophenyl)methyl-4(1H)-quinolinon-3-yl]-2-hydroxy-4-oxo-2-butenoic Acid] | 30 | –
CCOC(=O)/C(O)=C/C(=O)c1c[nH]c2cc(Cl)ccc2c1=O [7b, 4-(7-Chloro-4(1H)-quinolinon-3-yl)-2-hydroxy-4-oxo-2-butenoic Acid Ethyl Ester] | > 111000 | –
O=C(O)/C(O)=C/C(=O)c1cn(Cc2ccc(F)cc2)c2c(Cl)cccc2c1=O [6g, 4-[8-Chloro-1-(4-fluorophenyl)methyl-4(1H)-quinolinon-3-yl]-2-hydroxy-4-oxo-2-butenoic Acid] | 23 | –
O=C(O)/C(O)=C/C(=O)c1cn(Cc2ccc(F)cc2)c2cc(N3CCCC3)ccc2c1=O [6i, 4-[1-(4-Fluorophenyl)methyl-7-(pyrrolidin-1-yl)-4(1H)-quinolinon-3-yl]-2-hydroxy-4-oxo-2-butenoic Acid] | – | approximately 1.5
O=C(O)/C(O)=C/C(=O)c1cn(Cc2ccc(F)cc2)c2cc(Cl)c(Cl)cc2c1=O [6h, 4-[6,7-Dichloro-1-(4-fluorophenyl)methyl-4(1H)-quinolinon-3-yl]-2-hydroxy-4-oxo-2-butenoic Acid] | – | approximately 1.5
O=C(O)/C(O)=C/C(=O)c1c[nH]c2ccc(Cl)cc2c1=O [8a, 4-(6-Chloro-4(1H)-quinolinon-3-yl)-2-hydroxy-4-oxo-2-butenoic Acid] | > 111000 | –
